Assay results as given in patent publication US5486597A, “Tetrapeptide derivatives and analogues” (James Black Foundation Limited, priority 1990, dated 1996).
Non-standard residues stand in square brackets, D forms with d. Residues, ends and D or L forms follow the SMILES beside them. *: point of attachment. Trp(5-F) = N[C@@H](Cc1c[nH]c2ccc(F)cc12)C(=O)O; 2Nal = N[C@@H](Cc1ccc2ccccc2c1)C(=O)O; Boc = CC(C)(C)OC(=O)*

Legend:
Assay type in all cases: cell-based
gastrin receptor [1] = target: T1, gastrin receptor (Mus musculus, UniProt P56481); assay: mouse stomach assay for gastrin activity (isolated stomach, acid secretion); details: for Kb / pKB mouse stomach: isolated mouse stomach assay, gastrin antagonism, standard errors less than 5%; for Kb: read-out: pKB mouse stomach (converted); for Acid seretion at 10^-5 M test compound, relative to pentagastrin (%): mouse stomach, NS = not significant
T1 construct: assayed for gastrin activity using the mouse stomach assay; from tissue; host or cells: isolated mouse stomach
T1 sequence (P56481 1-453): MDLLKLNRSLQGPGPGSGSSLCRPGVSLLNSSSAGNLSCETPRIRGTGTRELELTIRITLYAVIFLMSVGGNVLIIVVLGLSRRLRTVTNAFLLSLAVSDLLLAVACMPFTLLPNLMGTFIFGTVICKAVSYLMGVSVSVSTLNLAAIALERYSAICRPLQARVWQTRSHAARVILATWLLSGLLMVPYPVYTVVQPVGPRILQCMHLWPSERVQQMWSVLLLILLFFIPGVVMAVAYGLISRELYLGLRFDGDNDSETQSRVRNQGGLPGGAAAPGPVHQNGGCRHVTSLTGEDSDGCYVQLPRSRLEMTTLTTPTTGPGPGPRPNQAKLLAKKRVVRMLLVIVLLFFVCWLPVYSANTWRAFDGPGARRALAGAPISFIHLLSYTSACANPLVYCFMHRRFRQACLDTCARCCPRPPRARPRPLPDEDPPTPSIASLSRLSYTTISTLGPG
Experimental: The compounds were assayed for gastrin activity using the mouse stomach assay as described by Black, J. W. and Shankley, N. P., Br. J. Pharmacol., 86, 571-579, (1985), and also in the guinea-pig fundus assay, as follows: […]

gastrin receptor [2] = target: T2, gastrin receptor (Cavia porcellus, UniProt H0VZC5); assay: guinea-pig fundus assay for gastrin activity (stomach muscle strips); details: 10^-8 M devazepide present, 60 minute equilibration, agonist e.g. pentagastrin, standard errors less than 5%
T2 construct: Strips of muscle (approximately 2.5 cm by 1 cm) are removed from the proximal area of the stomach; from tissue; host or cells: guinea-pig proximal stomach (fundus) muscle strips
T2 sequence (H0VZC5 1-426): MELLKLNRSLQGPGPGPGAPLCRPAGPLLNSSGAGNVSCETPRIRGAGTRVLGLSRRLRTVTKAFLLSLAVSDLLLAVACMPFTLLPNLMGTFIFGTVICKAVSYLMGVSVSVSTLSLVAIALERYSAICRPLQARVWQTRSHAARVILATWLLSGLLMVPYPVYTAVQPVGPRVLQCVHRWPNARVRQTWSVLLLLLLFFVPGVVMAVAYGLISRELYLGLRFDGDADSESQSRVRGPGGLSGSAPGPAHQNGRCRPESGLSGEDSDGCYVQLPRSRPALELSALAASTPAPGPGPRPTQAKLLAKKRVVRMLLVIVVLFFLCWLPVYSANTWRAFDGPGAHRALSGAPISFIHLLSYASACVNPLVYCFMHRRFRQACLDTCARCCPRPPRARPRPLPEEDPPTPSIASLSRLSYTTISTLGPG
Experimental: The compounds were assayed for gastrin activity using the mouse stomach assay as described by Black, J. W. and Shankley, N. P., Br. J. Pharmacol., 86, 571-579, (1985), and also in the guinea-pig fundus assay, as follows:
The stomach is removed from a male Dunkin-Hartley guinea-pig (250-500 g), and Krebs solution is injected through a hypodermic needle under the top stomach muscle layer. The composition (mM) of the Krebs solution is as follows: Na^+ 143, K^+ 5.9, Ca^2+ 2.5, Mg^2+ 1.2, Cl^- 128, H2 PO4^- 2.2, HCO3^- 24.9, SO4^2- 1.2, dextrose 10. Strips of muscle (approximately 2.5 cm by 1 cm) are removed from the proximal area of the stomach (one from each side) and tied with cotton thread to isotonic transducers under an initial loading tension of 0.35 g.
The preparation is immersed in 20 mls of Krebs solution containing 10^-8 M devazepide (25 μl 2×10^-3 M devazepide/100% DMF solution in 5 dm^3 Krebs) and gassed with 95% O2 /5% CO2. The function of the devazepide is to block possible effects at CCK receptors present in the tissue.
The preparation is washed twice over a 60 minute period then 10 mM KCl is added. At 90 minutes, test compounds (ie. potential antagonists) are added and a further 60 minute equilibration period allowed. After this time, cumulative agonist (e.g. pentagastrin) dose-response curves are constructed.

[3] = target: T3, cholecystokinin receptors (Cavia porcellus, UniProt Q63931); assay: CCK-antagonist activity in isolated guinea-pig gall-bladder strip preparations; details: guinea-pig gall-bladder strips; CCK-8 as agonist; test compound incubated for 60 minutes; standard errors less than 5%
T3 construct: Isolated, strip preparations were prepared from gall-bladders removed from male Dunkin-Hartley guinea-pigs; from tissue; host or cells: guinea-pig gall-bladder strips
T3 sequence (Q63931 1-430): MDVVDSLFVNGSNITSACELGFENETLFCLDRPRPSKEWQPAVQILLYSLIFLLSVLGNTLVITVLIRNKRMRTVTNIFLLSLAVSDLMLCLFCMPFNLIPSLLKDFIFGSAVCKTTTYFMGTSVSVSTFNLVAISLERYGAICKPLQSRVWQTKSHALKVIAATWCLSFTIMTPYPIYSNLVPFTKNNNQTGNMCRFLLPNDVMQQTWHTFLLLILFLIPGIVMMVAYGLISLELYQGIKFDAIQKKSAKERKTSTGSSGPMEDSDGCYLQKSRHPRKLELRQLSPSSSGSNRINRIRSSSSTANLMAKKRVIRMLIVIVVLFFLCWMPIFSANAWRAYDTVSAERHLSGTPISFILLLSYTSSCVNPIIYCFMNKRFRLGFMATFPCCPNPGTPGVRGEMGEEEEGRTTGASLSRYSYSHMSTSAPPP
Summary of the method: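 Male Dunkin-Hartley guinea-pig gall-bladder strips under 1 g isometric tension in Krebs (0.5 mM Ca²⁺), 37° C, 95% O2/5% CO2, stabilised 90 min. Cumulative CCK-8 concentration-effect curves without and with test compound (60 min preincubation); antagonism expressed as […] by modified competitive analysis.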

Molecule | Kb (gastrin receptor [1]) [µM] | Acid seretion at 10^-5 M test compound, relative to pentagastrin (%) (gastrin receptor [1]) | Kb (gastrin receptor [2]) [µM] | Kb [3] [µM] | pKB mouse stomach (gastrin receptor [1]) | pKB (gastrin receptor [2]) | pKB [3]
COc1ccc2[nH]cc(CC(NC(=O)OC(C)(C)C)C(=O)N[C@@H](Cc3ccc4ccccc4c3)C(=O)N[C@@H](CC(=O)O)C(=O)N[C@@H](Cc3ccccc3)C(N)=O)c2c1 (mixture of isomers) [Example 19, N-t-Butyloxycarbonyl-5-methoxy-D,L-tryptophyl-L-3-(2-naphthyl)alanyl-L-aspartyl-L-phenylalaninamide] | 5.01 | 80 | 1.58 | 0.501 | – | – | –
CC(C)(C)OC(=O)N[C@@H](Cc1c[nH]c2ccccc12)C(=O)N[C@@H](Cc1ccc2ccccc2c1)C(=O)N[C@@H](CC(=O)O)C(=O)N[C@@H](Cc1ccccc1)C(N)=O [Example 1, N-t-Butyloxycarbonyl-L-tryptophyl-L-3-(2-naphthyl)alanyl-L-aspartyl-L-phenylalaninamide] (Boc-W[2Nal]DF-NH2) | 0.631 | 65 | 3.16 | 5.01 | – | – | –
CC(C)(C)OC(=O)N[C@@H](Cc1c[nH]c2ccccc12)C(=O)N[C@@H](Cc1ccc2ccccc2c1)C(=O)N[C@@H](CC(=O)O)C(=O)NCCc1ccc(Cl)cc1 [Example 8, N-t-Butyloxycarbonyl-L-tryptophyl-L-3-(2-naphthyl)alanyl-L-aspartyl-(4-chlorophenethyl)amide] | – | 28 | – | – | 5.9 | 5.0 | –
COc1ccc(CCNC(=O)[C@H](CC(=O)O)NC(=O)[C@H](Cc2ccc3ccccc3c2)NC(=O)[C@H](Cc2c[nH]c3ccccc23)NC(=O)OC(C)(C)C)cc1 [Example 10, N-t-Butyloxycarbonyl-L-tryptophyl-L-3-(2-naphthyl)alanyl-L-aspartyl-(4-methoxy)phenethylamide] | – | – | – | – | 6.0 | 5.9 | 7.2
COc1ccccc1CCNC(=O)[C@H](CC(=O)O)NC(=O)[C@H](Cc1ccc2ccccc2c1)NC(=O)[C@H](Cc1c[nH]c2ccccc12)NC(=O)OC(C)(C)C [Example 40, N-t-Butyloxycarbonyl-L-tryptophyl-L-3-(2-naphthyl)alanyl-L-aspartyl-2-methoxyphenethylamide] | – | 22 | – | – | 5.2 | 5.8 | 7.1
N-t-Butyloxycarbonyl-L-tryptophyl-L-3-(2-naphthyl)alanyl-L-aspartyl-trans- 2-phenylcyclopropylamide [Example 29] | – | – | – | – | – | 6.0 | 5.9

Second part, the molecule after the results:

Kb (gastrin receptor [1]) [µM] | Acid seretion at 10^-5 M test compound, relative to pentagastrin (%) (gastrin receptor [1]) | Kb (gastrin receptor [2]) [µM] | Kb [3] [µM] | pKB mouse stomach (gastrin receptor [1]) | pKB (gastrin receptor [2]) | pKB [3] | Molecule
– | 40 | – | – | 5.0 | 6.1 | 6.5 | CC(C)(C)OC(=O)N[C@@H](Cc1c[nH]c2ccccc12)C(=O)N[C@@H](Cc1ccc2ccccc2c1)C(=O)N[C@@H](CC(=O)O)C(=O)N[C@@H]1CCC[C@H]1c1ccccc1 (single isomer, unassigned; diastereomer 1) [Example 31, N-t-Butyloxycarbonyl-L-tryptophyl-L-3-(2-naphthyl)alanyl-L-aspartyl-trans-2-phenylcyclopentylamide (diastereomer 1)]
– | – | – | – | 5.2 | 6.2 | 7.0 | CC(C)(C)OC(=O)N[C@@H](Cc1c[nH]c2ccccc12)C(=O)N[C@@H](Cc1ccc2ccccc2c1)C(=O)N[C@@H](CC(=O)O)C(=O)N[C@@H]1CCC[C@@H]1c1ccccc1 (single isomer, unassigned; diastereomer 1) [Example 33, N-t-Butyloxycarbonyl-L-tryptophyl-L-3-(2-naphthyl)alanyl-L-aspartyl-cis-2-phenylcyclopentylamide (diastereomer 1)]
– | 40 | – | – | 6.5 | 5.8 | 6.9 | CC(C)(C)OC(=O)N[C@@H](Cc1c[nH]c2ccccc12)C(=O)N[C@@H](Cc1ccc2ccccc2c1)C(=O)N[C@@H](CC(=O)O)C(=O)N[C@@H]1CCC[C@@H]1c1ccccc1 (single isomer, unassigned; diastereomer 2) [Example 34, N-t-Butyloxycarbonyl-L-tryptophyl-L-3-(2-naphthyl)alanyl-L-aspartyl-cis-2-phenylcyclopentylamide (diastereomer 2)]
– | 22 | – | – | 5.6 | 5.6 | – | CN(C)C(=O)[C@H](Cc1ccccc1)NC(=O)[C@H](CC(=O)O)NC(=O)[C@H](Cc1ccc2ccccc2c1)NC(=O)[C@H](Cc1c[nH]c2ccccc12)NC(=O)OC(C)(C)C [Example 6, N-t-Butyloxycarbonyl-L-tryptophyl-L-3-(2-naphthyl)alanyl-L-aspartyl-L-phenylalanyl-(N,Ndimethyl)amide] (Boc-W[2Nal]DF-NMe2)
– | – | – | – | 5.7 | 5.3 | 5.8 | COc1ccc(C[C@H](NC(=O)[C@H](CC(=O)O)NC(=O)[C@H](Cc2ccc3ccccc3c2)NC(=O)[C@H](Cc2c[nH]c3ccccc23)NC(=O)OC(C)(C)C)C(N)=O)cc1 [Example 7, N-t-Butyloxycarbonyl-L-tryptophyl-L-3-(2-naphthyl)alanyl-L-aspartyl-L-(4-methoxyphenylalanin)amide] (Boc-W[2Nal]DY(Me)-NH2)
1.58 | 54 | 1.26 | 0.631 | – | – | – | CC(C)(C)OC(=O)N[C@@H](Cc1c[nH]c2ccc(F)cc12)C(=O)N[C@@H](Cc1ccc2ccccc2c1)C(=O)N[C@@H](CC(=O)O)C(=O)N[C@@H](Cc1ccccc1)C(N)=O [Example 18, N-t-Butyloxycarbonyl-5-fluoro-L-tryptophyl-L-3-(2-naphthyl)alanyl-L-aspartyl-L-phenylalaninamide] (Boc-[Trp(5-F)][2Nal]DF-NH2)
– | – | – | – | – | 5.9 | 7.0 | N-t-Butyloxycarbonyl-L-tryptophyl-L-3-(2-naphthyl)alanyl-L-aspartyl-α-2-phenethylester [Example 63]
